{"source": "paper PMC6678728", "about": "“Methylene Blue Blocks and Reverses the Inhibitory Effect of Tau on PMCA Function” (International Journal of Molecular Sciences, 2019)", "biological_target": "T1, purified pig brain PMCA (brainPMCA)", "T1 construct": "gene ATP2B1; native, purified from pig brain synaptosomal plasma membrane vesicles, delipidated, reconstituted in PS or PC", "assay": "quenching of intrinsic Trp fluorescence, Stern-Volmer", "type": "binding, Sus scrofa", "conditions": "reconstituted in PS, no tau; pH 7.4, 25 °C, 100 mM KCl, 2 mM MgCl2, 3.16 µM free Ca2+, 1 mM ATP; unreliable (extrapolated: titrated only up to 10 µM MB)", "description": "quenching of intrinsic Trp fluorescence, Stern-Volmer on purified pig brain PMCA (brainPMCA)"}
{"smiles": "CN(C)c1ccc2nc3ccc(=[N+](C)C)cc-3sc2c1", "note": "[Methylene blue]", "values": [{"measurement": "Kd", "result": "52.6 ± 2.5", "unit": "µM"}]}
